Measurements reported in US10689354B2, “Aminoazole derivative” (Teijin Pharma Limited, priority 2015, dated 2020).

Target: T1, androgen receptor (AR-LBD) (Rattus norvegicus, UniProt P15207)
T1 construct: 5 μL of 2×AR-LBD/Fluoromone AL Red Complex contained in the kit; purchased Invitrogen
T1 sequence (P15207 651-882 limits assumed): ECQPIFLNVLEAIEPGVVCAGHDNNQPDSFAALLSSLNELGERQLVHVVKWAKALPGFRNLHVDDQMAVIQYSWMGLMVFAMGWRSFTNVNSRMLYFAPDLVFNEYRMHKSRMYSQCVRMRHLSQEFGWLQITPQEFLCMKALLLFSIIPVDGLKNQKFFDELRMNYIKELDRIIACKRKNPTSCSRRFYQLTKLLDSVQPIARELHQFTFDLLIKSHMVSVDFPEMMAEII
Experiment: Evaluation of androgen receptor affinity (PolarScreen Androgen Receptor Competitor Assay Kit, Red; fluorescence polarization)
Details: 22° C. for 5 hours, relative to binding rate of 1 μM DHT, read-out: AR affinity (pEC50) (converted)
Procedure, shortened: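 FP competition: compound + AR-LBD/Fluoromone AL Red tracer complex, 22° C, 5 h. Reference 1 μM DHT binding rate; pEC50 by 4-parameter fit.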

Row | Compound | EC50
1 | Cc1sc(N(C[C@H]2CC[C@@H](O)CC2)c2ccc(C#N)cc2)nc1C(=O)NS(C)(=O)=O [Compound 353, 2-[4-cyano-N-[(cis-4-hydroxycyclohexyl)methyl]anilino]-5-methyl-N-methylsulfonyl-thiazole-4-carboxamide] | > 2 µM
2 | Cc1nc(CN(c2ccc(C#N)cc2)c2nc(C(=O)NS(C)(=O)=O)c(C)o2)cs1 [Compound 619, 2-[4-cyano-N-[(2-methylthiazol-4-yl)methyl]anilino]-5-methyl-N-methylsulfonyl-oxazole-4-carboxamide] | > 2 µM
3 | Cc1sc(N(C[Si](C)(C)c2ccccc2)c2ccc(C#N)cc2)nc1C(=O)NS(C)(=O)=O [Compound 477, 2-[4-cyano-N-[[dimethyl(phenyl)silyl]methyl]anilino]-5-methyl-N-methylsulfonyl-thiazole-4-carboxamide] | > 2 µM
4 | Cc1sc(N(c2ccc(C#N)cc2F)[C@@H](CO)c2ccccc2)nc1C(=O)NS(C)(=O)=O [Compound 667, 2-(4-cyano-2-fluoro-N-[(1R)-2-hydroxy-1-phenyl-ethyl]anilino)-5-methyl-N-methylsulfonyl-thiazole-4-carboxamide] | > 2 µM
5 | CS(=O)(=O)NC(=O)c1nc(N(Cc2ccccc2)c2ccc(C#N)cc2)sc1-c1ccccc1 [Compound 601, 2-(N-benzyl-4-cyano-anilino)-N-methylsulfonyl-5-phenyl-thiazole-4-carboxamide] | > 2 µM
6 | Cc1sc(N(CC(=O)C(C)(C)C)c2ccc(C#N)cc2)nc1C(=O)NS(C)(=O)=O [Compound 63, 2-(4-cyano-N-(3,3-dimethyl-2-oxo-butyl)anilino)-5-methyl-N-methylsulfonyl-thiazole-4-carboxamide] | > 2 µM
7 | Cc1sc(N(Cc2ccccc2)c2cccc(OCCOCc3ccccc3)c2)nc1C(=O)NS(C)(=O)=O [Example 208, 2-[N-benzyl-3-(2-benzyloxyethoxy)anilino]-5-methyl-N-methylsulfonyl-thiazole-4-carboxamide] | > 2 µM
8 | Cc1sc(N(Cc2ccccc2)c2ccc(C#N)cc2)nc1C(=O)NS(=O)(=O)CCN1C(=O)CCC1=O [Compound 383, 2-(N-benzyl-4-cyano-anilino)-N-[2-(2,5-dioxopyrrolidin-1-yl)ethylsulfonyl]-5-methyl-thiazole-4-carboxamide] | > 2 µM
9 | Cc1sc(N(c2ccc(C#N)cc2)[C@H](CO)c2ccccc2)nc1C(=O)NS(C)(=O)=O [Compound 467, 2-(4-cyano-N-[(1S)-2-hydroxy-1-phenyl-ethyl]anilino)-5-methyl-N-methylsulfonyl-thiazole-4-carboxamide] | > 2 µM
10 | COc1ccccc1CN(c1ccc(C#N)cc1)c1nc(C(=O)NS(C)(=O)=O)c(Br)s1 [Example 249, 5-bromo-2-[4-cyano-N-[(2-methoxyphenyl)methyl]anilino]-N-methylsulfonyl-thiazole-4-carboxamide] | 0.1 µM
11 | Cc1ccc(CN(c2ccc(C#N)cc2)c2nc(C(=O)NS(C)(=O)=O)c(Br)s2)cc1 [Example 246, 5-bromo-2-[4-cyano-N-(p-tolylmethyl)anilino]-N-methylsulfonyl-thiazole-4-carboxamide] | 0.0398 µM
12 | Cc1sc(N(CC[C@H]2C[C@H](O)CO2)c2ccc(C#N)cc2)nc1C(=O)NS(C)(=O)=O (racemic) [Compound 457, 2-[4-cyano-N-[2-[trans-4-hydroxytetrahydrofuran-2-yl]ethyl]anilino]-5-methyl-N-methylsulfonyl-thiazole-4-carboxamide] | > 2 µM
13 | Cc1sc(N(Cc2ccccc2)CC2CCCCC2)nc1C(=O)NS(C)(=O)=O [Compound 668, 2-[benzyl(cyclohexylmethyl)amino]-5-methyl-N-methylsulfonyl-thiazole-4-carboxamide] | > 2 µM
14 | Cc1ccc(S(=O)(=O)n2cc(CCN(Cc3ccccc3)c3nc(C(=O)NS(C)(=O)=O)c(C)s3)c3ccccc32)cc1 [Example 318, 2-[benzyl-[2-[1-(p-tolylsulfonyl)indol-3-yl]ethyl]amino]-5-methyl-N-methylsulfonyl-thiazole-4-carboxamide] | > 2 µM
15 | Cc1sc(N(Cc2ccccc2)Cc2csc3cc(C#N)ccc23)nc1C(=O)NS(C)(=O)=O [Compound 675, 2-[benzyl-[(6-cyanobenzothiophen-3-yl)methyl]amino]-5-methyl-N-methylsulfonyl-thiazole-4-carboxamide] | > 2 µM
16 | Cc1sc(N(CC2CC2)c2ccc(C#N)cc2)nc1C(=O)NS(C)(=O)=O [Compound 67, 2-[4-cyano-N-(cyclopropylmethyl)anilino]-5-methyl-N-methylsulfonyl-thiazole-4-carboxamide] | > 2 µM
17 | Cc1sc(N(CCc2ccc3nccnc3c2)Cc2ccccc2)nc1C(=O)NS(C)(=O)=O [Compound 690, 2-[benzyl(2-quinoxalin-6-ylethyl)amino]-5-methyl-N-methylsulfonyl-thiazole-4-carboxamide] | 1 µM
18 | Cc1sc(N(CCCc2ccccc2)c2ccc(C#N)cc2)nc1C(=O)NS(C)(=O)=O [Compound 433, 2-[4-cyano-N-(3-phenylpropyl)anilino]-5-methyl-N-methylsulfonyl-thiazole-4-carboxamide] | > 2 µM

Other lines, results leading:

Row | EC50 | Compound
19 | > 2 µM | Cc1sc(N(Cc2ccccc2)c2ccccn2)nc1C(=O)NS(C)(=O)=O [Compound 408, 2-[benzyl(2-pyridyl)amino]-5-methyl-N-methylsulfonyl-thiazole-4-carboxamide]
20 | > 2 µM | Cc1sc(N(Cc2ccccc2)c2ccccc2F)nc1C(=O)NS(C)(=O)=O [Compound 30, 2-(N-benzyl-2-fluoro-anilino)-5-methyl-N-methylsulfonyl-thiazole-4-carboxamide]
21 | 0.631 µM | Cc1sc(N(CCc2ccncc2)Cc2ccccc2)nc1C(=O)NS(C)(=O)=O [Compound 743, 2-[benzyl-[2-(4-pyridyl)ethyl]amino]-5-methyl-N-methylsulfonyl-thiazole-4-carboxamide]
22 | 1 µM | Cc1sc(N(Cc2ccccc2)c2ccc(F)cc2)nc1C(=O)NS(C)(=O)=O [Compound 28, 2-(N-benzyl-4-fluoro-anilino)-5-methyl-N-methylsulfonyl-thiazole-4-carboxamide]
23 | 0.631 µM | Cc1sc(N(Cc2ccccc2)c2ccc(C#N)cc2Br)nc1C(=O)NS(C)(=O)=O [Compound 142, 2-(N-benzyl-2-bromo-4-cyano-anilino)-5-methyl-N-methylsulfonyl-thiazole-4-carboxamide]
24 | 0.398 µM | Cc1sc(N(Cc2ccccc2)c2ccc(F)c(F)c2)nc1C(=O)NS(C)(=O)=O [Compound 48, 2-(N-benzyl-3,4-difluoro-anilino)-5-methyl-N-methylsulfonyl-thiazole-4-carboxamide]
25 | > 2 µM | Cc1sc(N(Cc2ccccc2)C(C)Cc2ccccc2)nc1C(=O)NS(C)(=O)=O (centres unmarked) [Compound 674, 2-[benzyl-(1-methyl-2-phenyl-ethyl)amino]-5-methyl-N-methylsulfonyl-thiazole-4-carboxamide]
26 | > 2 µM | Cc1sc(N(Cc2ccccc2)c2ccccc2OC(F)(F)F)nc1C(=O)NS(C)(=O)=O [Compound 27, 2-[N-benzyl-2-(trifluoromethoxy)anilino]-5-methyl-N-methylsulfonyl-thiazole-4-carboxamide]
27 | 1.26 µM | Cc1sc(N(Cc2ccccc2)c2ccc(S(C)(=O)=O)cc2)nc1C(=O)NS(C)(=O)=O [Example 261, 2-(N-benzyl-4-methylsulfonyl-anilino)-5-methyl-N-methylsulfonyl-thiazole-4-carboxamide]
28 | > 2 µM | Cc1sc(N(Cc2ccccc2)c2ccccc2Cl)nc1C(=O)NS(C)(=O)=O [Compound 33, 2-(N-benzyl-2-chloro-anilino)-5-methyl-N-methylsulfonyl-thiazole-4-carboxamide]
29 | > 2 µM | Cc1sc(N(Cc2ccccc2)c2cccc(OCCO)c2)nc1C(=O)NS(C)(=O)=O [Example 210, 2-[N-benzyl-3-(2-hydroxyethoxy)anilino]-5-methyl-N-methylsulfonyl-thiazole-4-carboxamide]
30 | 1.26 µM | Cc1sc(N(CCc2ccccc2C#N)Cc2ccccc2)nc1C(=O)NS(C)(=O)=O [Example 302, 2-[benzyl-[2-(2-cyanophenyl)ethyl]amino]-5-methyl-N-methylsulfonyl-thiazole-4-carboxamide]
31 | > 2 µM | Cc1sc(N(Cc2ccccc2)Cc2ccncc2)nc1C(=O)NS(C)(=O)=O [Example 296, 2-[benzyl(4-pyridylmethyl)amino]-5-methyl-N-methylsulfonyl-thiazole-4-carboxamide]
32 | > 2 µM | Cc1sc(N(CCn2cccc2)Cc2ccccc2)nc1C(=O)NS(C)(=O)=O [Example 309, 2-[benzyl(2-pyrrol-1-ylethyl)amino]-5-methyl-N-methylsulfonyl-thiazole-4-carboxamide]
33 | 0.631 µM | Cc1sc(N(Cc2ccccc2)c2ccc(C(F)(F)F)nn2)nc1C(=O)NS(C)(=O)=O [Example 237, 2-[benzyl-[6-(trifluoromethyl)pyridazin-3-yl]amino]-5-methyl-N-methylsulfonyl-thiazole-4-carboxamide]
34 | > 2 µM | Cc1sc(N(Cc2ccccc2)c2ccccc2C(F)(F)F)nc1C(=O)NS(C)(=O)=O [Example 228, 2-[N-benzyl-2-(trifluoromethyl)anilino]-5-methyl-N-methylsulfonyl-thiazole-4-carboxamide]
35 | 0.501 µM | COCCOc1ccc(N(Cc2ccccc2)c2nc(C(=O)NS(C)(=O)=O)c(C)s2)cc1 [Compound 22, 2-[N-benzyl-4-(2-methoxyethoxy)anilino]-5-methyl-N-methylsulfonyl-thiazole-4-carboxamide]
